Experimental data: ChEMBL document CHEMBL5729054, “Five membered-aminoheterocycle and 5,6-or 6,6-membered bicyclic aminoheterocyclic inhibitors of rock for the treatment of heart failure” (2022)

Target: Rho-associated protein kinase 2 (Homo sapiens, UniProt O75116)
Test: In Vitro Assay: The effectiveness of compounds of the present invention as ROCK inhibitors can be determined in a 30 μL assay containing 20 mM HEPES, pH 7.5, 20 mM MgCl2, 0.015% Brij-35, 4 mM DTT, 5 μM ATP and 1.5 μM peptide substrate (FITC-AHA-AKRRRLSSLRA-OH) (SEQ ID No. 1). Compounds were dissolved in DMSO so that the final concentration of DMSO was <2%, and the reaction was initiated with Rho kinase variants. After incubation, the reaction was terminated by the addition of EDTA and the phosphorylated and non-phosphorylated peptides separated using a LABCHIP® 3000 Reader (Caliper Life Sciences). […] Compounds were tested in dose-response format, and the inhibition of kinase activity was calculated at each concentration of compound. The inhibition data were fit using a curve-fitting program to determine the IC50; i.e., the concentration of compound required to inhibit 50% of kinase activity.

Rho-associated protein kinase 2, sequence (O75116 whole entry, looked up, change not shown): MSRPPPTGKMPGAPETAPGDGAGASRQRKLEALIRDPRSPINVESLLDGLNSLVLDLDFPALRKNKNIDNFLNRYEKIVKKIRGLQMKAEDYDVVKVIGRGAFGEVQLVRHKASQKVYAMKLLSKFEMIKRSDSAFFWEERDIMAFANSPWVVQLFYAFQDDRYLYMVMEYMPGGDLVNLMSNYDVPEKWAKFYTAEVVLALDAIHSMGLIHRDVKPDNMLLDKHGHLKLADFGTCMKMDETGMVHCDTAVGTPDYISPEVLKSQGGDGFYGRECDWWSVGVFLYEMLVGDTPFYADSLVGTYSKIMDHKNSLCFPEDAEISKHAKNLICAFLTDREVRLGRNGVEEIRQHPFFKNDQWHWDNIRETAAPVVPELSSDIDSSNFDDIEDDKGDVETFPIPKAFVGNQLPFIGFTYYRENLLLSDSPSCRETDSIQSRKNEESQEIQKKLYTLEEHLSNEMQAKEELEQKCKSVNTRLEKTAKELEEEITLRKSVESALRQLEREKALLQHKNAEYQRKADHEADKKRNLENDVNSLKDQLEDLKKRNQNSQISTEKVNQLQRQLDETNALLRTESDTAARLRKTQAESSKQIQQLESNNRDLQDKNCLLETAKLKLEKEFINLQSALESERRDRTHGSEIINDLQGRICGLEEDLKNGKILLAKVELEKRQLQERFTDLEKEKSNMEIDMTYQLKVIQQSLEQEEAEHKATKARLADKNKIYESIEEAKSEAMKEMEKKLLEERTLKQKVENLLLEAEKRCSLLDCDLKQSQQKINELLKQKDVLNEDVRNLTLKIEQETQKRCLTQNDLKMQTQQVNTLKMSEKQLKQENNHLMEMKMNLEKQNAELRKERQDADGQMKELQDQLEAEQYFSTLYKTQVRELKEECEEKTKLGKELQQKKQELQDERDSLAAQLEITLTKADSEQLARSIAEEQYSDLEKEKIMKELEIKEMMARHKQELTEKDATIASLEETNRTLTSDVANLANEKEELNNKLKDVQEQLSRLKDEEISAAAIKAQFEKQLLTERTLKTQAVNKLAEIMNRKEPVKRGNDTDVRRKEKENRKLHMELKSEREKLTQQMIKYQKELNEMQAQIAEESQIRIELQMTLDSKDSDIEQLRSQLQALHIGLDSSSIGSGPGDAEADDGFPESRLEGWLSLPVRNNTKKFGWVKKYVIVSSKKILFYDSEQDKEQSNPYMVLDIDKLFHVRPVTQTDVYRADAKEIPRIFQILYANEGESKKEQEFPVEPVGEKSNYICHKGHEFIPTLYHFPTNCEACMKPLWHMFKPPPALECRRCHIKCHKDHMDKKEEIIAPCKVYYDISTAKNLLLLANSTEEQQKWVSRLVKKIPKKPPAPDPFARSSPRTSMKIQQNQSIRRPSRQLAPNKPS

IC50: 1.51 µM
Compound: N#Cc1cnc(NC2CC3(C2)CC(Oc2ncccc2C(N)=O)C3)nc1 (stereo unspecified)
